# Data as given in US11077167B2, “Agent for promoting skeletal muscle injury repair” (Osaka University, priority 2017, dated 2021).
# Key:
# mesenchymal cell = settings: Patent Literature 2; cited from earlier work
# [1] = tested on: Human skeletal muscle satellite cells (HskMSCs); assay: Cell proliferative capacity (WST-1 assay); type: cell-based; settings: SV peptide 20 ng/mL; 0-72 hours
# Description: (§1) Human skeletal muscle satellite cells (HskMSCs) were purchased from ScienCell Research Laboratories and used. The medium used for HskMSC culture was the supplier's recommended medium (Skeletal Muscle Cell Medium containing 5% FBS, Skeletal Muscle Cell Growth Supplement, and penicillin/streptomycin solution).
# Human skeletal muscle satellite cells and human skeletal muscle myoblasts were separately seeded at 1.0×10^4 cells/mL in each well of non-treated polystyrene 96-well cell culture plates (Falcon). The SV peptide (20 ng/mL, SV group), the random SV (20 ng/mL, random SV group), or PBS (PBS group) was added to the medium. The plates were cultured at 37° C. in a 5% CO2 atmosphere. After 0, 12, 24, 48, and 72 hours, cell proliferation was assessed using Premix WST-1 Cell Proliferation Assay System (Takara Bio, Japan).
# [2] = tested on: muscle injury model rats (incised masseter muscles on both sides); assay: Histological staining of masseter muscles at postoperative week 1, Example 1; type: in vivo, Jcl:SD rats; settings: P<0.05, t-test
# Method: (§2) Incisions were made in masseter muscles on both sides in Jcl:SD rats (10 weeks old). Immediately after muscle incision, 1 mL each of the SV peptide (20 ng/mL) was intramuscularly administered into several sites surrounding the cut surfaces. The incision on each side was made along a straight line connecting the lateral angle of the eye and the mandibular angle, extending in depth from the fascia on the skin side to the lateral periosteum on the mandibular ramus. The cut surfaces were subjected to electrocoagulation with an electric scalpel for the arrest of bleeding (see FIG. 1).
# This experiment was performed on rats subjected to incision of masseter muscles on both sides and subsequent administration of the SV peptide into the incised left masseter muscle without administration into the incised right masseter muscle (control). Each rat was euthanized at postoperative week 1, and the masseter muscles on both sides were excised. Histological sections were prepared by the usual method and subjected to various types of staining. The number of immature muscle fibers with central nuclei, which were muscle fibers involved in muscle repair, and the number of blood vessels were counted on HE-staining specimens. The masseter muscle was divided into upper and lower halves in the coronal plane, and 2 slices each of the upper and lower halves were used for counting. Counting was performed in 5 fields of view in each slice. The area of granulation tissue formed on the cut surfaces was measured on sirius red-staining specimens (type I and type III collagens were stained) using an image-analysis software. The sections were immunostained for myogenin, a marker for myotube cells, and the number of myogenin-positive cells was counted using an image-analysis software.
# [3] = tested on: Human skeletal muscle satellite cells (HskMSCs); assay: Cell migratory capacity (cell-denuded area); type: cell-based; settings: SV peptide 20 ng/mL
# Description: as §1
# Human skeletal muscle satellite cells and human skeletal muscle myoblasts were separately cultured on 60-mm (diameter) dishes (Iwaki) to 100% confluency. From each dish, a 2-mm-wide strip of cells were removed, and the medium was replaced with a medium containing the SV peptide (20 ng/mL, SV group), the random SV (20 ng/mL, random SV group), or PBS (PBS group). Thereafter, culture was continued. Images were taken with a digital camera mounted on a phase-contrast microscope every 12 hours. The cell-denuded area was measured using the image-analysis software ImageJ (NIH, USA). The cell migration percentage was determined by calculating the percentage of reduction in the cell-denuded area relative to the value immediately after cell removal.
# [4] = Patent Literature 3; cited from earlier work
# [5] = tested on: muscle injury model rats (incised masseter muscles on both sides); assay: Electrophysiological experiment (masseter EMG), Example 2; type: in vivo, Jcl:SD rats
# Method: as §2, with “old) under anesthesia in the same manner as in Example 1.” for “old).”, “ng/mL) or 1 mL each of PBS” for “ng/mL)”, “1). […]” for “1).”
# In the same manner as in Example 1, bipolar needle electrodes were retained in the masseter muscles on both sides, and myogenic potential signals received through connectors fixed to both sides of the parietal bone were monitored. EMG data were recorded at postoperative weeks 1, 2, 4, 6, and 8.
# The integral of bursts in the left (administration side) masseter muscle in the SV group or the PBS group was calculated as a measure of muscle activity and represented in FIG. 9 as a relative value compared to the 1-week postoperative value, which was assumed as 1. […]
substance,measurement,setting,value
SVVYGLR [SV peptide],mesenchymal cell proliferation,mesenchymal cell,promotes mesenchymal cell proliferation
same,cell proliferative capacity,[1],not enhanced
same,number of muscle fibers with central nuclei,"[2]; HE staining, SV peptide side vs control side",significantly larger on the SV peptide side than that on the control side
same,number of blood vessels per field of view,"[2]; HE staining, SV peptide side vs non-administration control side",significantly larger on the SV peptide side than that on the control side
same,number of myogenin-positive nuclei per field of view,"[2]; myogenin immunostaining, SV peptide side vs control side",significantly larger on the SV peptide side than that on the control side
same,area of granulation tissue formed on cut surfaces,"[2]; sirius red staining, SV peptide side vs control side",significantly smaller on the SV peptide side than that on the control side
same,cell migratory capacity,[3],did not affect
same,cardiac function,[4],improves cardiac function
same,chewing side preference,"[5]; postoperative weeks 1 and 8, SV peptide into left masseter, right incision only",increase in left-side chewing preference over time postoperatively
same,integral of bursts in the left (administration side) masseter muscle,"[5]; weeks 4, 6, and 8, relative to 1-week postoperative value = 1, SV group vs PBS group",significantly greater values than those in the PBS group
